Experimental data taken from patent US12448388B2, “PRMT5 inhibitors and uses thereof” (Gilead Sciences, Inc., priority 2023, dated 2025).

The molecules below were run on HCT116 MTAP-deleted cell lines (assay: Cell viability assay (CellTiter-Glo, 7 days), HCT116 MTAP-deleted). Conditions: Homo sapiens, HCT-116; cell viability assay, HCT116 MTAP-deleted; class symbols; read-out: CC50.
Assay type: cell-based
Summary of the method: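 Each PRMT5 inhibitor was tested as a dose response alongside tool compounds on the same plate. Incubation ran 7 days at 37 °C under 5% CO2, after which CellTiter-Glo luminescence was recorded and CC50 calculated.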
With `Cc1ncc2c(N)nc3cc(F)c(C(=O)N4CCC[C@@H]5Oc6c(ccc(C(F)(F)F)c6F)[C@@H]54)cc3n12` [Ff-651, (4-amino-7-fluoro-1-methylimidazo[1,5-a]quinoxalin-8-yl)((4aS,9bS)-6-fluoro-7-(trifluoromethyl)-3,4,4a,9b-tetrahydrobenzofuro[3,2-b]pyridin-1(2H)-yl)methanone] the CC50 was under 100 nM.
`CN(C(=O)c1cc2c(cc1F)nc(N)c1cncn12)[C@@H]1COc2cc(S(F)(F)(F)(F)F)ccc21` [Ff-652, (S)-4-amino-7-fluoro-N-methyl-N-(6-(pentafluoro-16-sulfaneyl)-2,3-dihydrobenzofuran-3-yl)imidazo[1,5-a]quinoxaline-8-carboxamide] was tested, and the CC50 was under 100 nM.
`CN(C(=O)c1cc2c(cc1F)nc(N)c1cncn12)[C@@H]1COc2cc(C(F)F)c(Cl)cc21` [Ff-653, (S)-4-amino-N-(5-chloro-6-(difluoromethyl)-2,3-dihydrobenzofuran-3-yl)-7-fluoro-N-methylimidazo[1,5-a]quinoxaline-8-carboxamide] showed a CC50 of under 100 nM.
For `C[C@H]1C[C@@H](N(C)C(=O)c2cc3c(cc2F)nc(N)c2cncn23)c2ccc(C(F)(F)F)cc21` [Ff-654, 4-amino-7-fluoro-N-methyl-N-((1R,3S)-3-methyl-5-(trifluoromethyl)-2,3-dihydro-1H-inden-1-yl)imidazo[1,5-a]quinoxaline-8-carboxamide], the CC50 was under 100 nM.
For `Nc1nc2cc(F)c(C(=O)N3CCC[C@@H]4Oc5cc(-c6cnn(C(F)(F)F)c6)ccc5[C@@H]43)cc2n2cncc12` [Ff-655, (4-amino-7-fluoroimidazo[1,5-a]quinoxalin-8-yl)((4aS,9bS)-7-(1-(trifluoromethyl)-1H-pyrazol-4-yl)-3,4,4a,9b-tetrahydrobenzofuro[3,2-b]pyridin-1(2H)-yl)methanone], the CC50 was under 100 nM.
Work on `Cc1ncc2c(N)nc3cnc(C(=O)N4C[C@@H](F)C[C@@H]5Oc6cc(C(F)(F)F)ccc6[C@@H]54)cc3n12` [Ff-656, (4-amino-1-methylimidazo[1,5-a]pyrido[3,4-e]pyrazin-8-yl)((3S,4aS,9bS)-3-fluoro-7-(trifluoromethyl)-3,4,4a,9b-tetrahydrobenzofuro[3,2-b]pyridin-1(2H)-yl)methanone] yielded a CC50 of under 100 nM.
With `Cc1ncc2c(N)nc3cc(F)c(C(=O)N4C[C@@H](F)C[C@@H]5Oc6cc(C(F)(F)F)ccc6[C@@H]54)cc3n12` [Ff-657, (4-amino-7-fluoro-1-methylimidazo[1,5-a]quinoxalin-8-yl)((3S,4aS,9bS)-3-fluoro-7-(trifluoromethyl)-3,4,4a,9b-tetrahydrobenzofuro[3,2-b]pyridin-1(2H)-yl)methanone] the CC50 was under 100 nM.
In the case of `Cc1ncn2c1c(N)nc1cc(F)c(C(=O)N3C[C@@H](F)C[C@@H]4Oc5cc(C(F)(F)F)ccc5[C@@H]43)cc12` [Ff-659, (4-amino-7-fluoro-3-methylimidazo[1,5-a]quinoxalin-8-yl)((3S,4aS,9bS)-3-fluoro-7-(trifluoromethyl)-3,4,4a,9b-tetrahydrobenzofuro[3,2-b]pyridin-1(2H)-yl)methanone], the CC50 is reported as under 100 nM.
With `Nc1nc2cc(F)c(C(=O)N3C[C@@H](F)C[C@@H]4Oc5cc(OC(F)(F)F)ccc5[C@@H]43)cc2n2cncc12` [Ff-666, (4-amino-7-fluoroimidazo[1,5-a]quinoxalin-8-yl)((3S,4aS,9bS)-3-fluoro-7-(trifluoromethoxy)-3,4,4a,9b-tetrahydrobenzofuro[3,2-b]pyridin-1(2H)-yl)methanone] the CC50 was under 100 nM.
For `Nc1nc2cc(F)c(C(=O)N3CCC4(CCc5ccccc54)C3)cc2n2cncc12` (centres unmarked) [Ff-670, (4-amino-7-fluoroimidazo[1,5-a]quinoxalin-8-yl)(2,3-dihydrospiro[indene-1,3′-pyrrolidin]-1′-yl)methanone], the CC50 was 100 to 1000 nM.
In the case of `C[C@@H]1C[C@@H](N(C)C(=O)c2cc3c(cc2F)nc(N)c2cncn23)c2ccc(C(F)(F)F)cc21` [Ff-671, 4-amino-7-fluoro-N-methyl-N-((1R,3R)-3-methyl-5-(trifluoromethyl)-2,3-dihydro-1H-inden-1-yl)imidazo[1,5-a]quinoxaline-8-carboxamide], the CC50 is reported as under 100 nM.
With `CN(C(=O)c1cc2c(cc1F)nc(N)c1cncn12)[C@@H]1COc2c1ccc(OC(F)F)c2F` [Ff-672, (S)-4-amino-N-(6-(difluoromethoxy)-7-fluoro-2,3-dihydrobenzofuran-3-yl)-7-fluoro-N-methylimidazo[1,5-a]quinoxaline-8-carboxamide] the CC50 was under 100 nM.
`Nc1nc2cc(F)c(C(=O)N3CCC4(CC4)[C@@H]4Oc5cc(C(F)(F)F)ccc5[C@@H]43)cc2n2cncc12` [Ff-676, (4-amino-7-fluoroimidazo[1,5-a]quinoxalin-8-yl)((4aS,9bS)-7-(trifluoromethyl)-2,3,4a,9b-tetrahydro-1H-spiro[benzofuro[3,2-b]pyridine-4,1′-cyclopropan]-1-yl)methanone] showed a CC50 of under 100 nM.
Work on `Nc1nc2cnc(C(=O)N3CCC4(CC4)[C@@H]4Oc5cc(C(F)(F)F)ccc5[C@@H]43)cc2n2cncc12` [Ff-677, (4-aminoimidazo[1,5-a]pyrido[3,4-e]pyrazin-8-yl)((4aS,9bS)-7-(trifluoromethyl)-2,3,4a,9b-tetrahydro-1H-spiro[benzofuro[3,2-b]pyridine-4,1′-cyclopropan]-1-yl)methanone] yielded a CC50 of under 100 nM.
`Cc1ncc2c(N)nc3cnc(C(=O)N4CCC5(CC5)[C@@H]5Oc6cc(C(F)(F)F)ccc6[C@@H]54)cc3n12` [Ff-679, (4-amino-1-methylimidazo[1,5-a]pyrido[3,4-e]pyrazin-8-yl)((4aS,9bS)-7-(trifluoromethyl)-2,3,4a,9b-tetrahydro-1H-spiro[benzofuro[3,2-b]pyridine-4,1′-cyclopropan]-1-yl)methanone] gave a CC50 of under 100 nM.
Molecule `Cc1ncn2c1c(N)nc1cnc(C(=O)N3CCC[C@@H]4Oc5cc(-c6cnn(C(F)(F)F)c6)ccc5[C@@H]43)cc12` [Ff-683, (4-amino-3-methylimidazo[1,5-a]pyrido[3,4-e]pyrazin-8-yl)((4aS,9bS)-7-(1-(trifluoromethyl)-1H-pyrazol-4-yl)-3,4,4a,9b-tetrahydrobenzofuro[3,2-b]pyridin-1(2H)-yl)methanone] has a CC50 of under 100 nM.
`C[C@H]1CN(C(=O)c2cc3c(cc2F)nc(N)c2cncn23)[C@H]2c3ccc(C(F)(F)F)c(F)c3C[C@H]2O1` [Ff-690, (4-amino-7-fluoroimidazo[1,5-a]quinoxalin-8-yl)((2S,4aS,9aR)-8-fluoro-2-methyl-7-(trifluoromethyl)-2,3,9,9a-tetrahydroindeno[2,1-b][1,4]oxazin-4(4aH)-yl)methanone] was tested, and the CC50 was under 100 nM.
`Nc1nc2cc(F)c(C(=O)N3CCO[C@@H]4Cc5c(ccc(C(F)(F)F)c5F)[C@@H]43)cc2n2cncc12` [Ff-691, (4-amino-7-fluoroimidazo[1,5-a]quinoxalin-8-yl)((4aS,9aR)-8-fluoro-7-(trifluoromethyl)-2,3,9,9a-tetrahydroindeno[2,1-b][1,4]oxazin-4(4aH)-yl)methanone] gave a CC50 of 100 to 1000 nM.
With `Cc1ncc2c3cc(C(=O)N(Cc4ccc(C(F)(F)F)cn4)[C@H](C)c4ncccn4)c(F)cc3nc(N)n12` [Fg-17, (R)-5-amino-8-fluoro-3-methyl-N-(1-(pyrimidin-2-yl)ethyl)-N-((5-(trifluoromethyl)pyridin-2-yl)methyl)imidazo[1,5-c]quinazoline-9-carboxamide] the CC50 was under 100 nM.
With `Cc1ncn2c1c(N)nc1cc(Cl)c(C(=O)N3CCC[C@@H]4Oc5cc(C(F)(F)F)ncc5[C@@H]43)cc12` [Fg-19, (4-amino-7-chloro-3-methylimidazo[1,5-a]quinoxalin-8-yl)((4aS,9bS)-7-(trifluoromethyl)-3,4,4a,9b-tetrahydrofuro[3,2-b:4,5-c′]dipyridin-1(2H)-yl)methanone] the CC50 was under 100 nM.
Work on `C[C@@H]1C[C@@H]2Oc3cc(C(F)(F)F)ncc3[C@@H]2N(C(=O)c2cc3c(cc2F)nc(N)c2cncn23)C1` [Fg-20, (4-amino-7-fluoroimidazo[1,5-a]quinoxalin-8-yl)((3R,4aS,9bS)-3-methyl-7-(trifluoromethyl)-3,4,4a,9b-tetrahydrofuro[3,2-b:4,5-c′]dipyridin-1(2H)-yl)methanone] yielded a CC50 of under 100 nM.
With `Cc1ncn2c1c(N)nc1cc(F)c(C(=O)N3C[C@H](C)C[C@@H]4Oc5cc(C(F)(F)F)ncc5[C@@H]43)cc12` [Fg-21, (4-amino-7-fluoro-3-methylimidazo[1,5-a]quinoxalin-8-yl)((3R,4aS,9bS)-3-methyl-7-(trifluoromethyl)-3,4,4a,9b-tetrahydrofuro[3,2-b:4,5-c′]dipyridin-1(2H)-yl)methanone] the CC50 was under 100 nM.
`Nc1nc2cc(F)c(C(=O)N3CCO[C@@H]4Cc5cc(OC(F)F)ccc5[C@@H]43)cc2n2cncc12` [Fg-24, (4-amino-7-fluoroimidazo[1,5-a]quinoxalin-8-yl)((4aS,9aR)-7-(difluoromethoxy)-2,3,9,9a-tetrahydroindeno[2,1-b][1,4]oxazin-4(4aH)-yl)methanone] gave a CC50 of under 100 nM.
Molecule `Nc1nc2cc(F)c(C(=O)N3CCC[C@@H]4Oc5cc(F)ccc5[C@@H]43)cc2n2cncc12` [Fg-25, (4-amino-7-fluoroimidazo[1,5-a]quinoxalin-8-yl)((4aS,9bS)-7-fluoro-3,4,4a,9b-tetrahydrobenzofuro[3,2-b]pyridin-1(2H)-yl)methanone] has a CC50 of under 100 nM.
`Cc1ncn2c1c(N)nc1cc(F)c(C(=O)N3CCC[C@@H]4Oc5cc(F)ccc5[C@@H]43)cc12` [Fg-26, (4-amino-7-fluoro-3-methylimidazo[1,5-a]quinoxalin-8-yl)((4aS,9bS)-7-fluoro-3,4,4a,9b-tetrahydrobenzofuro[3,2-b]pyridin-1(2H)-yl)methanone] showed a CC50 of under 100 nM.
With `Cc1ncn2c1c(N)nc1cnc(C(=O)N3CC(C)(C)CC4Oc5cc(OC(F)(F)F)ccc5C43)cc12` (centres unmarked) [Fg-27, (4-amino-3-methylimidazo[1,5-a]pyrido[3,4-e]pyrazin-8-yl)(3,3-dimethyl-7-(trifluoromethoxy)-3,4,4a,9b-tetrahydrobenzofuro[3,2-b]pyridin-1(2H)-yl)methanone] the CC50 was 100 to 1000 nM.
